According to ChEMBL document CHEMBL4304758, “Development of Peptide-Based Sirtuin Defatty-Acylase Inhibitors Identified by the Fluorescence Probe, SFP3, That Can Efficiently Measure Defatty-Acylase Activity of Sirtuin” (J Med Chem, 2019):
Where a name gives a salt, the structure may show the parent alone. Residues, ends and D or L forms follow the SMILES beside them. *: point of attachment. Tfa = O=C(C(F)(F)F)*

What was measured:
[1] = target: T1, NAD-dependent protein deacetylase sirtuin-2 (Homo sapiens, UniProt Q8IXJ6); test: Inhibition of recombinant human SIRT2 deacylation activity expressed in Escherichia coli Rosetta2 using Fluor-de-Lys-SIRT2 deacetylase substrate measured after 2 hrs by fluorescence assay
T1 sequence (Q8IXJ6 whole entry): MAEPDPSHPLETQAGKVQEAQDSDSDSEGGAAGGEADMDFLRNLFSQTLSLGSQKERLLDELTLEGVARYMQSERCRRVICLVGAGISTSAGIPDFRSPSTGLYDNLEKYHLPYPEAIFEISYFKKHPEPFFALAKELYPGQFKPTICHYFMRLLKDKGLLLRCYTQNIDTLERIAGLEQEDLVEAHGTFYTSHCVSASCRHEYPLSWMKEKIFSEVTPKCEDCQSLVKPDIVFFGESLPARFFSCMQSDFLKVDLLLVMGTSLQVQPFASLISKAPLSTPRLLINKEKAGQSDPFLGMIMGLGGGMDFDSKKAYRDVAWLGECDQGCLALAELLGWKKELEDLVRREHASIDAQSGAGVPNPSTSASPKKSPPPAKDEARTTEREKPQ

[2] = target: T1, NAD-dependent protein deacetylase sirtuin-2; test: Inhibition of recombinant human SIRT2 deacylation activity using Fluor de Lys Sirt2 as substrate measured at 5 mins interval for 30 mins in presence of NAD+ by fluorescence assay
[3] = target: T1, NAD-dependent protein deacetylase sirtuin-2; test: Inhibition of recombinant human SIRT2 demyristoylase activity using p53(Myr)-AMC as substrate measured after 3 hrs in presence of NAD+ and trypsin by fluorescence assay
[4] = target: T2, NAD-dependent protein deacetylase sirtuin-3, mitochondrial (Homo sapiens, UniProt Q9NTG7); test: Inhibition of recombinant human SIRT3 (118 to 399 residues) defatty-acylase activity expressed in Escherichia coli using SFP3 as substrate measured at 5 mins interval for 60 mins in presence of NAD+ by fluorescence assay
T2 sequence (Q9NTG7 whole entry): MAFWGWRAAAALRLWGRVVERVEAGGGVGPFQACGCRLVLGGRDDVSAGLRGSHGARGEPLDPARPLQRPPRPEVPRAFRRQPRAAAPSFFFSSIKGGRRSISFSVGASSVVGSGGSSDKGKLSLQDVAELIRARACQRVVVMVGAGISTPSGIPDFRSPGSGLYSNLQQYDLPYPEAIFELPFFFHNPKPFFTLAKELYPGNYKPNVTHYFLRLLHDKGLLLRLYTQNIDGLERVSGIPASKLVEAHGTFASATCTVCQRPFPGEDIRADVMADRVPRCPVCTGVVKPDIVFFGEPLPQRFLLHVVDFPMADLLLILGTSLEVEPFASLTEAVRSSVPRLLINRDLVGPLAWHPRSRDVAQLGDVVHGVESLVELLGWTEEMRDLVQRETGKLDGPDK

[5] = target: T1, NAD-dependent protein deacetylase sirtuin-2; test: Inhibition of recombinant human SIRT2 defatty-acylase activity using SFP3 as substrate measured at 5 mins interval for 60 mins in presence of NAD+ by fluorescence assay
[6] = target: T3, NAD-dependent protein deacetylase sirtuin-1 (Homo sapiens, UniProt Q96EB6); test: Inhibition of recombinant human C-terminal His6-tagged SIRT1 (Met1 to Ser747 residues) defatty-acylase activity expressed in Escherichia coli using SFP3 as substrate measured at 5 mins interval for 60 mins in presence of NAD+ by fluorescence assay
T3 sequence (Q96EB6 whole entry): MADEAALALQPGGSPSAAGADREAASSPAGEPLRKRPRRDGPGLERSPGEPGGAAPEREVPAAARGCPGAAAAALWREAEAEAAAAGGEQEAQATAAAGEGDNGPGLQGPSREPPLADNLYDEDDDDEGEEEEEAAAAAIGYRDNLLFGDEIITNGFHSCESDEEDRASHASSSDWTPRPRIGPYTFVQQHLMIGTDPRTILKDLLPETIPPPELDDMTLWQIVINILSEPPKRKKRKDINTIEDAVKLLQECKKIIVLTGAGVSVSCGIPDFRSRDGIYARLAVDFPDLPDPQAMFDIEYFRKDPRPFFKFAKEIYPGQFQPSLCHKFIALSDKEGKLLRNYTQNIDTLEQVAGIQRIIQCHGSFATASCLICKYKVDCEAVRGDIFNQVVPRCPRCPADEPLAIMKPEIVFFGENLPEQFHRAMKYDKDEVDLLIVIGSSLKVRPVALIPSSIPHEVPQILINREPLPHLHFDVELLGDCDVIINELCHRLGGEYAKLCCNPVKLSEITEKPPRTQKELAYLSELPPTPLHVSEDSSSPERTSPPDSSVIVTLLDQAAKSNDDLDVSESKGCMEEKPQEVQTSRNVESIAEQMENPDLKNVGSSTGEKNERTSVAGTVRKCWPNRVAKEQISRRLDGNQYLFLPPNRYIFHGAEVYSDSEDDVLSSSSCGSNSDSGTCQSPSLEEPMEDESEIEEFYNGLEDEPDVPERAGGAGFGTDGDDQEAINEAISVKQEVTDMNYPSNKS

IC50 [1]: 31 nM
IC50 [2]: 67 nM
IC50 [3]: 1100 nM
IC50 [4]: 540 nM
IC50 [5]: 320 nM
IC50 [6]: > 2000 nM
SMILES: CC[C@H](C)[C@H](NC(=O)[C@H](CCCNC(=N)N)NC(C)=O)C(=O)N[C@@H](CCCCNC(=O)C(F)(F)F)C(=O)N[C@@H](CCCNC(=N)N)C(=O)N[C@@H](Cc1ccc(O)cc1)C(N)=O (Ac-RIK(Tfa)RY-NH2)
